Consider two compounds from BindingDB's records for doi:10.1021/jm950721m (Warner-Lambert, 1996).

A short description of assay [1]: Binding affinity to rat Dopamine receptor D3 expressed in CHO cells was determined using [125 I] iodosulpride as radioligand.
Assay [2] is described as follows: Compound was evaluated for effective concentration […] for Dopamine receptor D2 mitogenesis. (95% confidence intervals).

By Ki is commonly meant a dissociation constant, usually derived from enzyme kinetics or from competition with a known ligand. High values mean a looser hold on the target, low ones a stronger hold on the target. The EC50 is the concentration at which the effect is half-maximal. Read a low EC50 as an effect from little substance. Take `Nc1cccc(C#CCCN2CC=C(c3ccccc3)CC2)c1` [3-[4-(4-Phenyl-3,6-dihydro-2H-pyridin-1-yl)-but-1-ynyl]-phenylamine]: the inhibitory constant (Ki) in assay [1] worked out at 0.36 nM. In assay [2], the half-maximal effective concentration (EC50) came to 9.8 nM. The compound `Nc1ccc(C#CCCN2CC=C(c3ccccc3)CC2)cc1` [4-[4-(4-Phenyl-3,6-dihydro-2H-pyridin-1-yl)-but-1-ynyl]-phenylamine] yielded a 50% effective concentration (EC50) in assay [2] of 0.5 nM.
